The text below walks through data of patent US7807181B2, “Neisseria mutants, lipooligosaccharides and immunogenic compositions” (Emory University, priority 2002, dated 2010).

The target in assay [1] is T1, CD14/TLR4-MD-2 receptor complex (Homo sapiens, UniProt O00206+Q9Y6Y9).
T1 construct: endogenous in cells
The experiment in a line: Activation of receptor complex by synthetic KDO. As to conditions: dose ranges from 10 ng-100 mg; data not shown. The format is cell-based. An excerpt: Acid hydrolysis might affect lipid A phosphate head groups and contribute to attenuation.

The test system of assay [2] is Psf protein (arabinose 5-phosphate isomerase). The experiment in a line: Colorimetric assay for keto-pentoses with purified Psf protein. The format is biochemical, N. meningitidis. The settings on record: 37° C., 10 min, 100 mM Tris-HCl pH 7.5, A540. The text has this: Psf is the arabinose 5-phosphate isomerase of N. meningitidis. […] To determine if Psf had isomerase activity, a colorimetric assay for keto-pentoses (Bigham et al., 1984) was first conducted using the purified Psf protein, which contained a C-terminal 6×His tag (FIG. 9A). […] The reaction was dependent on the concentration of Psf protein. […] The NMR chemical shifts of the phosphoryl groups of arabinose 5-P and ribulose 5-P are different, thus ^31P NMR can monitor the interconversion between the two sugars. […] The LOS defect in the psf mutant, but not the kdsB mutant, can be complemented by (exogenous) supplementation of arabinose in the growth medium (FIG. 9B), consistent with the identification of the Psf protein as an arabinose 5-phosphate isomerase.
The procedure of Dische and Borenfreund (Dische and Borenfreund, 1951, as modified by Bigham (Bigham, 1984) was used to determine the presence of ketopentoses. Briefly, enzyme was incubated at 37° C. for 10 min in the presence of various aldopentoses (ribose 5-phosphate, erythrose 4-phosphate, glucose 6-phosphate, and arabinose) and 100 mM Tris-HCl (pH 7.5) buffer and assayed as follows. A 250 μl aliquot of the reaction solution was quenched with the addition of 50 μl of a 1.5% cysteine solution followed immediately by 1.5 ml of concentrated H2S04. A 50 μl aliquot of 0.12% carbazole in 95% ethanol was then added, and the solution was heated at 37° C. for 30 min. The absorbance was read at 540 nm. As reported by Bigham et al. (1984), the conversion of 1 μmol of A5P to 1 μmol of Ru5P gave an ΔA of 8.2.

Assay [3] relates to differentiated U937 and THP-1 human macrophage-like cells. Kind of assay: Cytokine (TNFa, IL-1b, IL-8, IL-10) induction in macrophage-like cells stimulated with endotoxin. The format is cell-based. As to conditions: 2 mg/ml added during the induction assay. The text has this: The meningococcal mutant LOS preparations were used to investigate the role of endotoxin structure on the activation of macrophages via the CD14/TLR4-MD-2 receptor complex. Endotoxins were quantified and standardized based on lipid A content. Cytokine (TNFa, IL-1b, IL-8 or IL-10) induction, nitric oxide and reactive oxygen species (ROS) release from differentiated U937 and THP-1 human macrophage-like cells or RAW264.7 murine macrophages stimulated with endotoxin (0.56 pmole/ml, approximately 1 ng/ml) was studied.
Alternatively, LOS from a genetically-defined mutants of the serogroup B N. meningitidis strain NMB (encapsulated, L2 immunotype) (listed in Table I) were initially extracted by the phenol-water method (21). Residual membrane phospholipids (unsaturated fatty acyl residues C18:0) were removed by repeated extraction of the dry LOS samples with 9:1 ethanol:water. The expected LOS fatty acyl components of 3-OHC12:0, 3-OHC14:0 and C12:0 and the absence of membrane phospholipids was assessed by Mass spectroscopy (GC-MS). LOS preparations were examined by SDS-PAGE (22), quantitated and standardized based on the number of lipid A molecules per sample (23). […] The resulting methyl b-trimethylsilylmyristate was identified and quantified by GC-MS analysis. […]

T1 sequence (O00206 24-839): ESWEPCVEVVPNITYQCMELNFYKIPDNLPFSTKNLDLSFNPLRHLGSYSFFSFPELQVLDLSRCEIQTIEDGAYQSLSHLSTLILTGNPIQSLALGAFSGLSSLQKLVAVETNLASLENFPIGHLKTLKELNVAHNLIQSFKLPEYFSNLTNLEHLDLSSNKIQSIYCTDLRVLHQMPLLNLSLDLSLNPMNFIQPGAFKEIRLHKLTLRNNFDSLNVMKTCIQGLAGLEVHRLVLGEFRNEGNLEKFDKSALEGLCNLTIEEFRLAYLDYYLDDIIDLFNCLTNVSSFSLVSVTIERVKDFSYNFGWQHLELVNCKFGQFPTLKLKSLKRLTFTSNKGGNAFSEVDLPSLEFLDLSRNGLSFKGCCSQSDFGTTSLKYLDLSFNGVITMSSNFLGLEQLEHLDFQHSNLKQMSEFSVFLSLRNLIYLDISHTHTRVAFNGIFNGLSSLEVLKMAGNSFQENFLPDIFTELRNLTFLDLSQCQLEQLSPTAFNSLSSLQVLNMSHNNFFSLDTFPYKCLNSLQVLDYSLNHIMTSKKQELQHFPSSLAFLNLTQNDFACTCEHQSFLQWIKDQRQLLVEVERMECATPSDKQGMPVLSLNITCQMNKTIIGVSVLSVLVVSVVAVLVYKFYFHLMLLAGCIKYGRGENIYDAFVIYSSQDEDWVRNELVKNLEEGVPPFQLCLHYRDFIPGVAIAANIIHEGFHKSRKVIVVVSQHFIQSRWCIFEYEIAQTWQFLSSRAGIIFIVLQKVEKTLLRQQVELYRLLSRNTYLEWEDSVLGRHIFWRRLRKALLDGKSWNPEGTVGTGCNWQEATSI
T1 sequence (Q9Y6Y9 19-160): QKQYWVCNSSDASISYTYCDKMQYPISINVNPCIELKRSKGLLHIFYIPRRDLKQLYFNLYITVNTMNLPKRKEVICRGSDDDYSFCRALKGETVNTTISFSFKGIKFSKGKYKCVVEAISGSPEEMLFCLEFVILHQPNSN

As for `O=C(O)C(=O)CC(O)C(O)C(O)C(O)CO` (stereo not drawn) [Synthetic KDO, 2-keto-3-deoxyoctonic acid], the “activation of the CD14/TLR4-MD-2 receptor complex” value in assay [1] was “did not activate”.

Take `O=C[C@@H](O)[C@H](O)[C@H](O)CO` [arabinose]: the “substrate for the Psf protein” value in assay [2] is recorded as “did not serve as substrates”.

Take `O=C[C@H](O)[C@H](O)COP(=O)(O)O` [erythrose 4-phosphate]: the “substrate for the Psf protein” value in assay [2] is “did not serve as substrates”.

Take `O=C[C@H](O)[C@@H](O)[C@H](O)[C@H](O)COP(=O)(O)O` [glucose 6-phosphate]: in assay [2], the “substrate for the Psf protein” value is recorded as “did not serve as substrates”.

In the case of `O=C[C@H](O)[C@H](O)[C@H](O)COP(=O)(O)O` [ribose 5-phosphate], the “substrate for the Psf protein” value in assay [2] is “did not serve as substrates”.

In the case of polymyxin B, the “effect on meningococcal LOS-induced cytokine release” value in assay [3] is recorded as “neutralized”.
